Data from PubChem BioAssay (NCI).
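Following 48 hours of exposure in 96-well plates, responses at five concentrations were used to interpolate endpoints linearly. GI50 is the concentration that inhibits growth by half. TGI: concentration producing complete growth inhibition.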

Assays:
Assay in all cases: NCI-60 cell line screen, 48 h
UACC-257 melanoma = test system: UACC-257 melanoma
OVCAR-8 ovarian = test system: OVCAR-8 ovarian
DU-145 prostate = test system: DU-145 prostate
RPMI-8226 leukemia = test system: RPMI-8226 leukemia
MALME-3M melanoma = test system: MALME-3M melanoma
MDA-MB-435 = test system: MDA-MB-435
UACC-62 melanoma = test system: UACC-62 melanoma
NCI/ADR-RES ovarian = test system: NCI/ADR-RES ovarian
UO-31 renal = test system: UO-31 renal
SNB-19 CNS = test system: SNB-19 CNS
NCI-H460 lung = test system: NCI-H460 lung
TK-10 renal = test system: TK-10 renal
HL-60(TB) leukemia = test system: HL-60(TB) leukemia
786-0 renal = test system: 786-0 renal
M14 melanoma = test system: M14 melanoma
MDA-MB-231 breast = test system: MDA-MB-231 breast
EKVX NSCLC = test system: EKVX NSCLC
OVCAR-5 ovarian = test system: OVCAR-5 ovarian
SF-268 CNS = test system: SF-268 CNS
SK-MEL-5 melanoma = test system: SK-MEL-5 melanoma
IGROV1 ovarian = test system: IGROV1 ovarian
SN12C renal = test system: SN12C renal
NCI-H522 lung = test system: NCI-H522 lung
NCI-H226 lung = test system: NCI-H226 lung
OVCAR-4 ovarian = test system: OVCAR-4 ovarian
HCT-116 colon = test system: HCT-116 colon
SK-OV-3 ovarian = test system: SK-OV-3 ovarian
KM12 colon = test system: KM12 colon
HS 578T breast = test system: HS 578T breast
K-562 leukemia = test system: K-562 leukemia

Work on `CN(C)c1ccc(/C=C/c2n(Cc3ccc4ccccc4c3)c3ccccc3[n+]2Cc2ccc3ccccc3c2)cc1` yielded a TGI (UACC-257 melanoma) of 0.919 µM, a GI50 (OVCAR-8 ovarian) of 0.312 µM and a TGI (OVCAR-8 ovarian) of 1.35 µM. It also gave a GI50 (DU-145 prostate) of 0.354 µM, a TGI (DU-145 prostate) of 1.42 µM and a GI50 (RPMI-8226 leukemia) of 0.237 µM. It also gave a TGI (RPMI-8226 leukemia) of 1.13 µM, a GI50 (MALME-3M melanoma) of 0.249 µM and a TGI (MALME-3M melanoma) of 0.74 µM. For the same compound, the GI50 (MDA-MB-435) was 0.338 µM, the TGI (MDA-MB-435) was 1.24 µM and the GI50 (UACC-62 melanoma) was 0.281 µM. It also gave a TGI (UACC-62 melanoma) of 1.02 µM, a GI50 (NCI/ADR-RES ovarian) of 1.32 µM and a TGI (NCI/ADR-RES ovarian) of 3.46 µM. It also gave a GI50 (UO-31 renal) of 0.53 µM, a TGI (UO-31 renal) of 1.84 µM and a GI50 (SNB-19 CNS) of 0.296 µM. It also gave a TGI (SNB-19 CNS) of 1.19 µM, a GI50 (NCI-H460 lung) of 0.26 µM and a TGI (NCI-H460 lung) of 1.13 µM. It also gave a GI50 (TK-10 renal) of 0.416 µM, a TGI (TK-10 renal) of 1.68 µM and a GI50 (HL-60(TB) leukemia) of 0.228 µM. It also gave a TGI (HL-60(TB) leukemia) of 0.795 µM, a GI50 (786-0 renal) of 0.287 µM and a TGI (786-0 renal) of 1.44 µM. It also gave a GI50 (M14 melanoma) of 0.369 µM, a TGI (M14 melanoma) of 1.53 µM and a GI50 (MDA-MB-231 breast) of 0.292 µM. The TGI (MDA-MB-231 breast) was 0.998 µM, the GI50 (EKVX NSCLC) was 0.252 µM and the TGI (EKVX NSCLC) was 0.905 µM. The GI50 (OVCAR-5 ovarian) was 0.36 µM, the TGI (OVCAR-5 ovarian) was 1.41 µM and the GI50 (SF-268 CNS) was 0.383 µM. For the same compound, the TGI (SF-268 CNS) was 1.63 µM, the GI50 (SK-MEL-5 melanoma) was 0.181 µM and the TGI (SK-MEL-5 melanoma) was 0.346 µM. The GI50 (IGROV1 ovarian) was 0.382 µM, the TGI (IGROV1 ovarian) was 1.53 µM and the GI50 (SN12C renal) was 0.286 µM. It also gave a TGI (SN12C renal) of 1.07 µM, a GI50 (NCI-H522 lung) of 0.246 µM and a TGI (NCI-H522 lung) of 0.737 µM. It also gave a GI50 (NCI-H226 lung) of 0.257 µM, a TGI (NCI-H226 lung) of 1.01 µM and a GI50 (OVCAR-4 ovarian) of 0.342 µM. It also gave a TGI (OVCAR-4 ovarian) of 1.65 µM, a GI50 (HCT-116 colon) of 0.218 µM and a TGI (HCT-116 colon) of 1.3 µM. The GI50 (SK-OV-3 ovarian) was 0.28 µM, the TGI (SK-OV-3 ovarian) was 1.09 µM and the GI50 (KM12 colon) was 0.315 µM. For the same compound, the TGI (KM12 colon) was 1.3 µM, the GI50 (HS 578T breast) was 0.27 µM and the TGI (HS 578T breast) was 1.42 µM. It also gave a GI50 (K-562 leukemia) of 0.228 µM and a TGI (K-562 leukemia) greater than 22.9 µM.
